From patent EP4745145A1, “SALT OF THIAZOLOPYRAZINE COMPOUND OR CRYSTAL THEREOF AND USE THEREOF” (Simcere Zaiming Pharmaceutical Co., Ltd., priority 2023, dated 2025)

Assays:
[1] = test system: DLD-1 parent cells; experiment: Inhibition of tumor cell proliferation (CTG, 7 days); assay type: cell-based; details: Homo sapiens, DLD-1, 168 h; 7 days incubation
Procedure: (§1) Brief introduction to experimental principle: After the compound was co-incubated with tumor cells for 7 days, the ATP in viable cells was quantified using the CTG kit from Promega to reflect the effect of the compound on tumor cell proliferation.
(§2) Experimental methods: DLD-1 parent cells or DLD-1 BRCA2 (-/-) cells were diluted with an RPMI 1640 medium containing 10% FBS and then added to a 96-well plate (90 µL/well), with the number of cells being 600/well or 1200/well, respectively, and incubated overnight in an incubator at 37 °C with 5% CO2. The test compound was diluted to different concentrations with dimethyl sulfoxide (DMSO) and then added to a 96-well plate, such that, in the reaction system, the compound was serially diluted 4-fold from the final concentration of 25 µM. The concentration range of the compound was from 25 µM to 0.0004 µM, and the final concentration of DMSO was 0.25% v/v. After incubation for 7 days, 50 µL/well of CTG was added, and the mixture was incubated at room temperature for 10 min. The luminescence (Lum) signal value was read using an Envision microplate reader, and the inhibition rate and half inhibitory concentration (IC50) were calculated.
(§3) A Blank well and a DMSO well were set in the experiment. […] Inhibition rate = 100 × (Lummax−Lumcompound)/(Lummax−Lummin)% [formula] wherein Lummax refers to the luminescence signal value of the well containing cells and 0.25% v/v DMSO, and Lumcompound refers to the luminescence signal value of the well containing the compound and cells. Lummin refers to the luminescence signal value of the well containing the medium and 0.25% v/v DMSO.

[2] = test system: DLD-1 BRCA2 (-/-) cells; experiment: as above; assay type: cell-based
Procedure: as §1, §2, §3

[3] = test system: POLQ-mediated MMEJ pathway; experiment: Inhibition of cellular MMEJ pathway (NanoLuciferase reporter in HEK293T cells); assay type: cell-based; details: 24 h
Procedure: Brief introduction to experimental principle: POLQ is a key protein in the repair process of cellular MMEJ. The NanoLuciferase MMEJ repair reporter system was transferred into HEK293T cells. When the MMEJ repair pathway was normally performed in the cells, the NanoLuciferase reporter protein was correctly expressed, and the cell luminescence signal could be detected. The decrease in cell luminescence was measured using a BMG multifunctional microplate reader from BMG LABTECH to reflect the inhibition of the compound on the cellular MMEJ pathway.
Experimental methods: The test compound was diluted to different concentrations with dimethyl sulfoxide (DMSO) using an Echo 655 pipetting system and transferred to a 384-well plate. In the reaction system, the compound was serially diluted 3-fold from the final concentration of 10 µM. The final concentration of DMSO was 0.1%. HEK293T cells were collected, an MMEJ luciferase […] was transferred to the cells using a Neon transfection system, and the transfected HEK293T cells at 4000 cells/well were diluted with a DMEM medium containing 10% FBS and added to a 384-well plate (25 µL/well).
The compound inhibition rate was calculated and fitted using XLfit software to give the IC50 of the compounds. A Blank well and a DMSO well were set in the experiment.

[4] = target: T1, POLQ (Homo sapiens, UniProt O75417); experiment: POLQ enzyme activity inhibition experiment (ATPase, NADH-coupled); assay type: biochemical
T1 construct: the N-terminal active peptide segment of POLQ with ATPase activity (M1-N899) is co-incubated with the compound; purchased Pharmaron
Procedure: Brief introduction to experimental principle: After the N-terminal active peptide segment of POLQ with ATPase activity (M1-N899) is co-incubated with the compound, this peptide segment reacts with substrate dT50 under the action of ATP to generate ADP. The generated ADP then participates in the subsequent NADH oxidation-coupled enzymatic reaction, catalyzing the conversion of NADH to NAD^+. The reduction in the OD value of NADH at 340 nm was measured using the Envision microplate reader from Perkin Elmer to reflect enzyme activity.
Experimental methods: The POLQ enzyme was diluted to 100 nM with a reaction buffer (20 mM Tris HCl (pH 7.80), 80 mM KCl, 10 mM MgCl2, 1 mM DTT, 0.01% w/v bovine serum albumin, 0.01% v/v Tween-20, 5% v/v glycerol). The test compound was diluted to different concentrations with dimethyl sulfoxide (DMSO) using the Echo 650 pipetting system and transferred to a 384-well plate, 20 µL/well of 100 nM POLQ was added, and the mixture was incubated at room temperature for 15 min. […] After the 384-well plate was reacted at room temperature for 20 min, the OD value at 340 nm was read using an Envision microplate reader.
Inhibition rates were calculated and fitted using XLfit software to give the IC50 of the compound. […]

T1 sequence (O75417 1-899): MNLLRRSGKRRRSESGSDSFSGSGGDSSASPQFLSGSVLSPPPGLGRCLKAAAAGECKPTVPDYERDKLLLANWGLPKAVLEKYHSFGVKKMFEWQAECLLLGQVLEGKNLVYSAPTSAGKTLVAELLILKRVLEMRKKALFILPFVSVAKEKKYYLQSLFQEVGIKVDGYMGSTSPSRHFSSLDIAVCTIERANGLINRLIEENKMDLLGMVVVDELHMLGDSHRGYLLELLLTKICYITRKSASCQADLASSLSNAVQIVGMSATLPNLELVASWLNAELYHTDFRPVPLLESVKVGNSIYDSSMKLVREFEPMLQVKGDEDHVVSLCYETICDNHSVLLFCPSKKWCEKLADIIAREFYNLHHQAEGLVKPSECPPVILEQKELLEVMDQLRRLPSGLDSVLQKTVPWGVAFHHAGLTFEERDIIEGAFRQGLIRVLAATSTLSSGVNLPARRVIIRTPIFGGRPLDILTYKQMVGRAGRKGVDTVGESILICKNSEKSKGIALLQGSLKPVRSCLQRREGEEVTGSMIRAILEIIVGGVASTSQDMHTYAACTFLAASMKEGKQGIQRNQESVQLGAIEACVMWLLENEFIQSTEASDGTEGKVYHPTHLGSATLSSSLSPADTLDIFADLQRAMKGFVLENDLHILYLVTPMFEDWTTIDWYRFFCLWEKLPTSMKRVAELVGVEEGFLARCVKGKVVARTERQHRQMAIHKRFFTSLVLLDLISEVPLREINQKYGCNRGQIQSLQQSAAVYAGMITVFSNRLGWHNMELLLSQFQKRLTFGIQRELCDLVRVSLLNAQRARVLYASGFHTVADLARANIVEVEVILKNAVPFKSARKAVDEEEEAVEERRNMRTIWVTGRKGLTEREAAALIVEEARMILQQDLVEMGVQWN

**Q.** How did the IC50 [1] turn out when COc1ccc(Cl)cc1-c1cc(C)ncc1C(=O)Nc1nc2ncc(-c3ccc(C#N)cc3)nc2s1 [Compound of formula I, 4-(5-chloro-2-methoxyphenyl)-N-[6-(4-cyanophenyl)thiazolo[4,5-b]pyrazin-2-yl]-6-methylnicotinamide] was run?
**A.** ≥ 10000 nM

**Q.** What about the “inhibitory effect on tumor cells with BRCA2 mutation” value [2] of the same molecule?
**A.** good inhibitory effect

**Q.** And the selectivity [2]?
**A.** good selectivity

**Q.** And the IC50 ([2]; Homo sapiens, DLD-1, 168 h, 7 days incubation)?
**A.** < 200 nM

**Q.** And the “inhibitory activity on the POLQ-mediated MMEJ pathway in cells” value [3]?
**A.** strong inhibitory activity

**Q.** What about the IC50 [4] of the same molecule?
**A.** < 100 nM
